Values of other authors, collected in patent publication US20120093928A1, “ORAL METAXALONE COMPOSITIONS” (RANBAXY LABORATORIES LIMITED, priority 2007, published 2012).

For `Cc1cc(C)cc(OCC2CNC(=O)O2)c1` (centres unmarked) [metaxalone, 5-[(3,5-dimethyphenoxy)methyl]-2-oxazolidinone], the plasma half-life (in vivo) is listed as 2 to 3 h and the “time to mean peak plasma concentrations” value (oral, single 800 mg dosage) is listed as 2 h.
